Assay results as given in PMC3547732 (Chemistry Central Journal, 2012).

Key:
[1] = Enthalpy of solution by microreaction calorimetry; type: physicochemical; settings: 25°C
[2] = Enthalpy of solution by microreaction calorimetry; type: physicochemical; settings: for Enthalpy of solvation ΔsolvH: calculated by equation 3 from enthalpies of solution of drug and solvate in the solvent of solvation; for Molar enthalpy of solution in its own solvent, Solvates (ΔsolH^2): each solvate in its own solvent of solvation; for Molar enthalpy of solution in its own solvent, Solvates (ΔsolH^2) / Molar enthalpy of solution, Methanol ΔsolH (methanol) / Molar enthalpy of solution of Atorvastatin Calcium (ATC) (ΔsolH^1) in the solvent of the solvate: 25°C
Procedure: Molar enthalpy of solution (ΔHsol) was determined in phosphate buffer (pH8) as well as in methanol.
In order to determine the enthalpy associated with the solvation process the enthalpy of solution of a particular solvate was determined in its own solvent.
(3) ΔsolyH=ΔsolH^1−ΔsolH^2
Calorimetric studies were performed on Microreaction calorimeter obtained from Thermal Hazards Technology, UK. Two different solvents, viz, the phosphate buffer (pH 2) and methanol were used to determine the enthalpy of solution and the measurements were performed at 25°C. The size of sample used in this study ranged from 10 to 20 mg and was weighed (Sartorius Model CP225D) into a cylindrical glass tube covered with parafilm on one side. This cylindrical tube was submerged into the ampoule containing the solvent. A plunger with a cap was put from the open end of the tube. The same solvent was put into the reference ampoule. These were put into the sample and reference holes until both rest on the base of the holes. The apparatus was maintained at constant temperature at 25°C (±0.0005°C). The parafilm was shattered mechanically by means of plunger.

[3] = Desolvation of solvates by DSC and TGA; type: physicochemical; settings: for Desolvation temperature: DSC desolvation endotherm maximum, 10°C/min; for Enthalpy of desolvation, ΔdesolvH calculated from equation 4: calculated from enthalpies of solution, heat capacities and enthalpy of vapourization; for Enthalpy of desolvation per mole of solvent (binding energy): equation 1 from DSC desolvation enthalpy and TGA mass loss
Description: The desolvation temperatures account for the stability of solvates as the desolvation temperature in all these forms is much higher than the boiling point of the corresponding solvent. The quantitative estimate of the stability of these solvates is established by determining the binding energy for the solvents in all the solvates using equation 1 where the percent mass loss measured over the TG desolvation step of each solvate (ΔmS%) was related to the enthalpy change calculated over the corresponding DSC desolvation endotherm (ΔHSexp).
(1) ΔHS=ΔHSexp×100Δms%×Ms
where ΔHS (J mol^-1) is the enthalpy of desolvation (or binding energy) per mole of the bound solvent, MS is the molecular mass of the solvent.
(4) ΔdesolyH=ΔsolnH^2−ΔsolnH^1−ΔCPTdesoly−25+1/2ΔyapH
. A mass between 2–8 mg was taken into the aluminium pan, covered with lid and sealed. DSC curves were obtained under a nitrogen purge of 50 mL per minute at a heating rate of 10°C per minute with the temperature range from 50-350°C.
Loss of solvent from the samples was characterized by TGA obtained by TA Instruments-Waters LLC, USA. TGA traces were recorded at heating rates of 10°C per minute under a nitrogen purge of 50 ml per minute. Samples with masses between 1–10 mg were analyzed using platinum pan. Mass loss (%) was calculated based on the mass of the original sample.

[4] = test system: Triton induced hyperlipidemia; assay: Hypolipidemic activity in Triton induced hyperlipidemia in rats; type: in vivo, male Wistar rats; settings: for Total Cholesterol / Triglyceride: Triton treated rats, 30 mg/kg oral gavage 2 h before Triton i.p., plasma 18 h after triton injection
Procedure: The rats were housed under optimal laboratory conditions, maintained on 12 h light and dark cycle and had free access to food (Hindustan Lever Products, Kolkata, India) and water. Animals were acclimatized to laboratory conditions before the tests. All experiments were carried out between 0900 and 1700 h. The experimental protocols were approved by the Institutional Animal Ethics Committee and conducted according to the Indian National Science Academy guidelines for the use and care of animals. Fifty five male Wistar rats were divided into the following 11 groups containing 5 animals in each group: Atrovastain and various solvates were freshly suspended in 0.5% carboxymethyl cellulose and administered by oral gavage. Two hours later, all groups except control animals received intraperitonial injection of Triton (100 mg/kg). Eighteen hours after triton injection, blood was collected from tail vein. Plasma was separated and stored at −20°C for further biochemical analysis. Total cholesterol and triglyceride were analyzed in plasma samples using diagnostic kits as per manufacturer instructions.

Compound | Molar enthalpy of solution, Phosphate buffer (pH8) ΔsolH [1] [kJ mol^-1] | Enthalpy of solvation ΔsolvH [2] [kcal/mol] | Molar enthalpy of solution in its own solvent, Solvates (ΔsolH^2) [2] [kcal/mol] | Molar enthalpy of solution, Methanol ΔsolH (methanol) [2] [kcal/mol] | Enthalpy of desolvation, ΔdesolvH calculated from equation 4 [3] [kcal/mol] | Enthalpy of desolvation per mole of solvent (binding energy) [3] [kcal/mol] | Enthalpy of desolvation, ΔdesolvH from DSC [3] [kcal/mol] | Total Cholesterol [4] [mg/dL] | Triglyceride [4] [mg/dL] | further results
C1CCOC1.CC(C)c1c(C(=O)Nc2ccccc2)c(-c2ccccc2)c(-c2ccc(F)cc2)n1CC[C@@H](O)C[C@@H](O)CC(=O)[O-].CC(C)c1c(C(=O)Nc2ccccc2)c(-c2ccccc2)c(-c2ccc(F)cc2)n1CC[C@@H](O)C[C@@H](O)CC(=O)[O-].[Ca+2] [Solvate II] | 14.31 | -5.299 | -2.706 | 2.38 | 13.66 | 13.19 | 12.3 | 201 | 170 | Desolvation temperature ([3]; listed as Solvate- II): 98.89 °C; Desolvation temperature ([3]; listed as solvate II): 90(±8) °C
CC(C)(C)O.CC(C)c1c(C(=O)Nc2ccccc2)c(-c2ccccc2)c(-c2ccc(F)cc2)n1CC[C@@H](O)C[C@@H](O)CC(=O)[O-].CC(C)c1c(C(=O)Nc2ccccc2)c(-c2ccccc2)c(-c2ccc(F)cc2)n1CC[C@@H](O)C[C@@H](O)CC(=O)[O-].CC(C)c1c(C(=O)Nc2ccccc2)c(-c2ccccc2)c(-c2ccc(F)cc2)n1CC[C@@H](O)C[C@@H](O)CC(=O)[O-].CC(C)c1c(C(=O)Nc2ccccc2)c(-c2ccccc2)c(-c2ccc(F)cc2)n1CC[C@@H](O)C[C@@H](O)CC(=O)[O-].[Ca+2].[Ca+2] [Solvate IV] | 11.50 | -7.574 | 0.755 | 1.3 | 18.72 | 32.655 | 18.85 | 204 | 168 | Desolvation temperature ([3]; listed as IV): 90(±8) °C; Desolvation temperature ([3]; listed as Solvate- IV): 83. 34 °C
CC(C)c1c(C(=O)Nc2ccccc2)c(-c2ccccc2)c(-c2ccc(F)cc2)n1CC[C@@H](O)C[C@@H](O)CC(=O)O [ATC, Atorvastatin calcium, reference compound] | 21.89 |  |  | 4.567 |  |  |  | 198 | 169 | Molar enthalpy of solution of Atorvastatin Calcium (ATC) (ΔsolH^1) in the solvent of the solvate ([2]; solvent of Solvate I (isopropyl alcohol)): -3.231 kcal/mol; Molar enthalpy of solution of Atorvastatin Calcium (ATC) (ΔsolH^1) in the solvent of the solvate ([2]; solvent of Solvate II (THF)): 2.593 kcal/mol; Molar enthalpy of solution of Atorvastatin Calcium (ATC) (ΔsolH^1) in the solvent of the solvate ([2]; solvent of Solvate III (ethanol)): 7.663 kcal/mol; Molar enthalpy of solution of Atorvastatin Calcium (ATC) (ΔsolH^1) in the solvent of the solvate ([2]; solvent of Solvate IV (t-butanol)): 8.329 kcal/mol; Molar enthalpy of solution of Atorvastatin Calcium (ATC) (ΔsolH^1) in the solvent of the solvate ([2]; solvent of Solvate V (methanol)): 3.908 kcal/mol; Molar enthalpy of solution of Atorvastatin Calcium (ATC) (ΔsolH^1) in the solvent of the solvate ([2]; solvent of Solvate VI (acetone + ethanol)): 9.847 kcal/mol; Molar enthalpy of solution of Atorvastatin Calcium (ATC) (ΔsolH^1) in the solvent of the solvate ([2]; solvent of Solvate VII (ethanol + water)): 26.886 kcal/mol; Molar enthalpy of solution of Atorvastatin Calcium (ATC) (ΔsolH^1) in the solvent of the solvate ([2]; solvent of Solvate VIII (1-butanol)): 3.193 kcal/mol; lipid lowering in triton treated rats (total cholesterol and TG), in words ([4]; 30 mg/kg oral gavage): reduced lipid profile
CC(C)c1c(C(=O)Nc2ccccc2)c(-c2ccccc2)c(-c2ccc(F)cc2)n1CC[C@@H](O)C[C@@H](O)CC(=O)[O-].CC(C)c1c(C(=O)Nc2ccccc2)c(-c2ccccc2)c(-c2ccc(F)cc2)n1CC[C@@H](O)C[C@@H](O)CC(=O)[O-].CCO.[Ca+2] [Solvate III] | 5.46 |  | -1.82 | 0.729 | 8.219 | 15.14 | 10.68 | 203 | 172 | Desolvation temperature ([3]; listed as III): 90(±8) °C; Desolvation temperature ([3]; listed as Solvate- III): 90.42 °C
CC(C)=O.CC(C)=O.CC(C)c1c(C(=O)Nc2ccccc2)c(-c2ccccc2)c(-c2ccc(F)cc2)n1CC[C@@H](O)C[C@@H](O)CC(=O)[O-].CC(C)c1c(C(=O)Nc2ccccc2)c(-c2ccccc2)c(-c2ccc(F)cc2)n1CC[C@@H](O)C[C@@H](O)CC(=O)[O-].CC(C)c1c(C(=O)Nc2ccccc2)c(-c2ccccc2)c(-c2ccc(F)cc2)n1CC[C@@H](O)C[C@@H](O)CC(=O)[O-].CC(C)c1c(C(=O)Nc2ccccc2)c(-c2ccccc2)c(-c2ccc(F)cc2)n1CC[C@@H](O)C[C@@H](O)CC(=O)[O-].CCO.[Ca+2].[Ca+2] [Solvate VI] | 8.35 |  | -2.581 | 1.22 | 12.43 | 15.69 | 13.56 | 197 | 174 | Desolvation temperature ([3]; listed as Solvate-VI): 72.53 °C; Desolvation temperature ([3]; listed as solvate-VI): 72.5 °C
CC(C)c1c(C(=O)Nc2ccccc2)c(-c2ccccc2)c(-c2ccc(F)cc2)n1CC[C@@H](O)C[C@@H](O)CC(=O)[O-].CC(C)c1c(C(=O)Nc2ccccc2)c(-c2ccccc2)c(-c2ccc(F)cc2)n1CC[C@@H](O)C[C@@H](O)CC(=O)[O-].CC(C)c1c(C(=O)Nc2ccccc2)c(-c2ccccc2)c(-c2ccc(F)cc2)n1CC[C@@H](O)C[C@@H](O)CC(=O)[O-].CC(C)c1c(C(=O)Nc2ccccc2)c(-c2ccccc2)c(-c2ccc(F)cc2)n1CC[C@@H](O)C[C@@H](O)CC(=O)[O-].CCO.O.O.[Ca+2].[Ca+2] [Solvate VII] | 16.98 | -27.902 | -1.02 | 3.04 | 24.847 | 25.48 | 25.01 | 202 | 167 | Desolvation temperature ([3]; listed as Solvate-VII): 105.13 °C; Desolvation temperature ([3]; listed as VII): 105.1 °C
CC(C)c1c(C(=O)Nc2ccccc2)c(-c2ccccc2)c(-c2ccc(F)cc2)n1CC[C@@H](O)C[C@@H](O)CC(=O)[O-].CC(C)c1c(C(=O)Nc2ccccc2)c(-c2ccccc2)c(-c2ccc(F)cc2)n1CC[C@@H](O)C[C@@H](O)CC(=O)[O-].CO.[Ca+2] [Solvate V] | 3.85 |  | 0.507 | 0.507 | 6.381 | 13.12 | 6.279 | 198 | 170 | Desolvation temperature [3]: 70.15 °C
